Results on four molecules are retold here after publication PMC7805210, “Study on suitable analysis method for HIV-1 non-catalytic integrase inhibitor” (Virology Journal, 2021).

Usually EC50 stands for the concentration at which the effect is half-maximal. Usually CC50 stands for the concentration giving 50% cytotoxicity. Low values mean greater toxicity to the cells, high ones lower toxicity to the cells.

In series [1] the test system is HIV-1 AD8 strain. The series is described as follows: p24 ELISA antiviral activity in infected MT2 cells. The note with it: for EC50: Human immunodeficiency virus 1, MT2, 120 h; for SI value (CC50/EC50): MT2 cell system. How it is done: ELISA was conducted to detect HIV-1 p24 for assessment of antiviral activity using a HIV-1 p24 ELISA kit (XpressBio, Frederick, MD). To this end, MT2 cells seeded on a 96-well cell culture plate at a density of a 1 × 10^4 cells/well were infected with 500 TCID50 of HIV-1 AD8 strain. Each drug was serially diluted threefold (from 10,000 to 0.51 nM) for treatment of cells. After five days of culture at 37 °C with 5% CO2, 100 μl of culture medium was harvested and supernatant obtained by centrifugation for 5 min at 5000 rpm (8400 rcf), with storage at − 80 °C. Cell culture media of non-infected and infected cells without INI treatment were set as the negative and positive control, respectively. The ELISA procedure was conducted according to the manufacturer’s instructions. Briefly, samples were mixed with 20 μl lysis buffer, 200 μl aliquots pipetted into a microplate, and incubated for 1 h at 37 °C. After incubation, the contents of the wells were aspirated and microtitration plates washed six times with 350 μl wash buffer. Each well was treated with 100 μl detection antibody for 1 h at 37 °C, which was subsequently removed by washing under the same conditions. An aliquot (100 μl) of streptavidin-HRP conjugate was added into each well, followed by incubation at room temperature for 30 min. After washing under the same conditions, 100 μl substrate solution was immediately dispensed into each well and incubated for 30 min at room temperature with protection from direct sunlight. For termination of the reaction, 100 μl stop solution was added to each well and absorbance values at 450 nm immediately read using a microplate reader.
MT2 cells infected with 500 TCID50 of HIV-1 AD8 strain were treated with a range of concentrations of each drug. At 5 days post-infection, cell culture media were harvested for p24 ELISA. Media of non-infected and infected cells without HIV drug treatment were set as the negative or positive control, respectively.
A general note: In an ELISA, binding on a coated surface is turned into a signal by an enzyme label.

Series [2] in a line: Cell cytotoxicity by WST method (EZ-Cytox) in TZM-bl cells. It is filed as cell-based. The note with it: human, 2 days incubation. How it is done:
(§1) To determine the cytotoxicity of anti-HIV drugs, cell viability was assessed via the water-soluble tetrazolium salt (WST) method using an EZ-Cytox kit (Daeil Lab Service, Seoul, Korea) according to the manufacturer’s instructions. […] Cells were treated with serial dilutions of each drug ([…] dilutions from 50,000 to 2.54 nM). On days 2 and 5 of incubation, 10 μl EZ-Cytox solution was added to each well and incubated for 2 h, followed by spectrophotometric measurement of absorbance at 540 nm.

Series [3] in a line: Cell cytotoxicity by WST method (EZ-Cytox) in MT2 cells. The following applies: human, 5 days incubation. The format is cell-based. The protocol: as §1
In series [4] the target is T1, HIV-1 integrase (Human immunodeficiency virus type 1 group M subtype B, UniProt P04585).
T1 construct: 100 μl IN enzyme solution was added to each well; purchased XpressBio, Frederick, MD
The series is described as follows: Strand transfer inhibition assay (HIV-1 integrase assay kit). It is filed as biochemical. The following applies: read-out: strand transfer inhibitory activity. How it is done: The strand transfer assay was performed using the HIV-1 integrase assay kit (XpressBio, Frederick, MD) according to the manufacturer’s instructions. Briefly, 100 μl of 1X donor substrate DNA (DS DNA) solution was added to each well and incubated for 30 min at 37 °C. The liquid was aspirated from the wells and washed 5 times with 300 μl wash buffer, followed by incubation with 200 μl blocking buffer per well for 30 min at 37 °C. Following aspiration of the liquid, wells were washed three times with 200 μl reaction buffer. Next, 100 μl IN enzyme solution was added to each well and incubated under similar conditions followed by removal of liquid and three washes with 200 μl reaction buffer. Each test sample was fivefold serially diluted (from 1000 to 8 μM) in reaction buffer and 50 μl aliquots added per well. After 5 min incubation at room temperature, 50 μl 1X target substrate DNA (TS DNA) solution was directly added to the 50 μl test sample within the wells. Reactions were mixed by tapping the plate gently 3–5 times and incubating for 30 min at 37 °C, washed 5 times with 300 μl wash solution and incubated with 100 μl HRP antibody for 30 min at 37 °C. After washing the plate under the same conditions, 100 μl TMB peroxidase substrate solution was added per well and incubated for 10 min at room temperature. To terminate the reaction, 100 μl TMB stop solution was directly added to wells and absorbance read using a plate reader at 450 nm.
Fig.3 Strand transfer inhibition efficiency of catalytic and non-catalytic integrase inhibitors. a Schematic diagram of the strand transfer assay process. The yellow and blue boxes represent the response under conditions of no IN inhibitor or INSTI, respectively. b Integrase inhibitor compounds at a range of concentrations generated from fivefold serial dilutions were used to treat 3′-end cleaved LTR DS DNA by integrase. After incubation, TS DNA was added to each well for the strand transfer reaction. The reaction products were detected colorimetrically using a HRP-labeled antibody against modified target DNA. "No integrase" and "Integrase only" wells were set as the negative and positive control, respectively

Series [5] relates to HIV-1 AD8 strain. The series is described as follows: Antiviral activity test using the TZM-bl cell luciferase system. The note with it: for EC50: Human immunodeficiency virus 1, TZM-bl, 48 h. The protocol: TZM-bl cells were seeded on 96-well cell culture plates at a density of 1 × 10^4 cells/well and cultured overnight. Each drug was twofold serially diluted from 10,000 to 0.15 nM and treated to cells. After a 30 min incubation period, viral infection was performed with 500 TCID50 of HIV-1 AD8. Cells were cultured for 48 h after infection and luciferase activity measured using Beetle-Lysis Juice (PJK GmbH, Kleinblittersdorf, Germany) according to the manufacturer’s instructions. Briefly, the medium was removed, and cells washed three times with 200 μl PBS. Next, 100 μl Beetle-Lysis Juice containing luciferin and ATP were added to each well and incubated for 5 min with protection from sunlight. Subsequently, luciferase activity was measured using a micro beta counter (PerkinElmer, Waltham, MA) after transferring solutions to a white 96-well plate. Anti-HIV efficacy of drugs was determined based on reduced expression of luciferase relative to the virus-only treatment group.
Fig.1 Determination of antiviral activities of integrase inhibitors in the TZM-bl cell line system. Integrase inhibitors were serially diluted and incubated with 1 × 10^4 TZM-bl cells per well during 30 min, followed by infection with 500 TCID50 of HIV-1 AD8 strain. For determination of antiviral efficacy, luciferase activity was measured after 48 h of incubation. Cell culture media of non-infected and infected cells without HIV drug treatment were set as the negative and positive control, respectively.

Series [6] relates to HxB2, NL4.3 and a recombinant NL4.3 strain. The following applies: against HxB2, NL4.3 and a recombinant NL4.3 strain; cited from earlier work.
Series [7] has as its target T1, HIV-1 integrase. The series is described as follows: 3'-processing inhibition assay (modified strand transfer assay, inhibitor pre-incubated with IN). It is filed as biochemical. The following applies: 20 nM IN pre-incubated 30 min.
Method: To confirm the 3′-processing inhibition activity NCINI, the strand transfer inhibition assay was modified. The plate coating process with DS DNA was conducted in a similar manner. […] Reaction of integrase first with the drug before its reaction with DS DNA is a necessary step to validate the 3′-processing inhibitory activity of the compound. The integrase-inhibitor mixture was added to LTR DS DNA-conjugated 96-well plates. Subsequent steps were conducted in a similar manner as the strand transfer assay.
The subsequent steps were the same as the strand transfer assay protocol (Fig. 4a).
The 3′-processing inhibition assay was performed by modifying the protocol of the strand transfer assay. […] Before addition of LTR dsDNA, fivefold serially diluted integrase inhibitors were incubated with 20 nM integrase for 30 min. The integrase-inhibitor mixtures were treated with LTR dsDNA-conjugated 96-well plates. After incubation, target DNA was added to each well for the strand transfer reaction and the products detected colorimetrically using a HRP-labeled antibody against 3′-modified target DNA. "No integrase" and "integrase-only" wells were set as the negative and positive control, respectively
The target of series [8] is integrase strand transfer. The following applies: does not inhibit strand transfer; cited from earlier work.

The structures appear in SMILES notation.

With `C[C@@H]1CCO[C@H]2Cn3cc(C(=O)NCc4ccc(F)cc4F)c(=O)c(O)c3C(=O)N12` [DTG, Dolutegravir], in series [1], the EC50 is under 0.51 nM and the “SI value (CC50/EC50)” value was over 3413.60. This molecule also registered a CC50 at 2 days in series [2] of over 50000 nM. In addition, the CC50 at 5 days in series [3] came to 1740 nM. For the same molecule, the inhibition at 8 µM in series [4] is over 50%. The molecule also registered an EC50 in series [5] of 1.6 nM.

With `Cc1nc2ccccc2c(-c2ccc3c4c(ccnc24)CCO3)c1[C@H](OC(C)(C)C)C(=O)O` [BI 224436], the EC50 in series [6] is 11 to 27 nM; in series [1], 28.7 nM; in series [8], over 50000 nM; in series [5] it was 566 nM. The results for the “IN inhibition activity (3'-processing, modified protocol)” value in series [7] (at 3.2 μM) and in series [7] (at 2000 μM) were 80.65% and 87.14%, respectively. In series [2], this molecule had a CC50 at 2 days of over 50000 nM. In addition, in series [3], the CC50 at 5 days was over 50000 nM. For the same molecule, the inhibition at 8 µM in series [4] was 20%. Also, in series [4] (at 1000 μM), the inhibition at 1000 µM stood at 36%.

As to `Cc1nnc(C(=O)NC(C)(C)c2nc(C(=O)NCc3ccc(F)cc3)c(O)c(=O)n2C)o1` [RAL, Raltegravir], the figures for the EC50 in series [1] and in series [5] were 0.58 nM and 10.4 nM, respectively. Besides, the figures for the “SI value (CC50/EC50)” value in series [1] and in series [5] (TZM-bl cell system) were 11,075.19 and over 4816.96, respectively. In series [2], this molecule showed a half-maximal cytotoxic concentration (CC50) at 2 days of over 50000 nM. Further, half-maximal cytotoxicity in series [3] (CC50 at 5 days) was put at 6420 nM. For the same molecule, the inhibition at 8 µM in series [4] was over 50%.

Regarding `COc1cc2c(cc1Cc1cccc(Cl)c1F)c(=O)c(C(=O)O)cn2[C@H](CO)C(C)C` [EVG, Elvitegravir], the concentration for a half-maximal effect (EC50) in series [1] was under 0.51 nM; in series [5], under 0.15 nM. For the same molecule, the cytotoxic concentration (CC50) at 2 days in series [2] is 26000 nM. Moreover, the CC50 at 5 days in series [3] turned out to be 1260 nM.
